Test results reported in patent publication US20260285816A1, “Piperazinyl-Modified Quinazolinyl-Aryl Urea Derivative, And Preparation Method And Use Thereof” (Guangxi Normal University, priority 2025, published 2026).
Like-named read-outs stand apart in the source and are kept apart here.

Experiments:
Assay type in all cases: cell-based, human
5637 cells = assay: CCK-8 anti-proliferative assay, 5637; conditions: Homo sapiens; Table 16; comparative compounds 8-1 to 8-23; co-incubated 48 h; read-out: Anti-proliferative activity (IC50 ± standard deviation) 5637
Experimental: (§1) The obtained quinazolinyl-aryl urea derivatives were screened for compounds with optimal activity using the following method.
(§2) Experimental Procedure for Anti-Proliferative Activity Evaluation: The CCK-8 assay was employed. Cells in logarithmic growth phase were harvested, adjusted to appropriate density, and uniformly seeded into 96-well plates using a multichannel pipette (180 μL cell suspension containing complete medium per well, 5,000 cells/well). Blank control wells (containing basal medium, CCK-8 solution, and DMSO only) were set. Cells were incubated at 37° C. under 5% CO2. After 70% confluency was reached, test compounds (target compounds/positive controls) were added at final concentrations of 1, 2, 4, 6, 8, 12, 16, 24, and 30 μM (3 repeated wells per concentration). Compounds were pre-dissolved in DMSO, sterilized, and diluted with medium before adding 20 μL/well. After co-incubation for designated durations, 10 μL CCK-8 solution was added per well followed by 1-4 h incubation (different cells have different incubation times). […] Inhibition rates were calculated as: (ODcontrol−ODtreatment)/ODcontrol×100%. Median inhibitory concentrations (IC50 values) were derived using Origin v8.0 software.

T24 cells = assay: CCK-8 anti-proliferative assay, T24; conditions: Homo sapiens, T-24; Table 16; comparative compounds 8-1 to 8-23; co-incubated 48 h; read-out: Anti-proliferative activity (IC50 ± standard deviation) T24
From the text: (§3) The obtained quinazolinyl-aryl urea derivatives were screened for compounds with optimal activity using the following method. All cell lines employed in this experiment were of human origin, including: bladder cancer cells: J82, UM-UC-3, T24, 5637, pancreatic cancer cells: BxPC-3, PANC-1, osteosarcoma cells: 143B, MG-63, cervical cancer cells: HeLa, breast cancer cells: MCF-7, NSCLC cells: A549, hepatoblastoma cells: Hep G2, and ovarian cancer cells: SK-OV-3, as well as normal cell lines: immortalized ureteral epithelial cells (SV-HUC-1), embryonic lung fibroblasts (WI-38).
(§4) Experimental Procedure for Anti-Proliferative Activity Evaluation: The CCK-8 assay was employed. Cells in logarithmic growth phase were harvested, adjusted to appropriate density, and uniformly seeded into 96-well plates using a multichannel pipette (180 μL cell suspension containing complete medium per well, 5,000 cells/well). Blank control wells (containing basal medium, CCK-8 solution, and DMSO only) were set. Cells were incubated at 37° C. under 5% CO2. After 70% confluency was reached, test compounds (target compounds/positive controls) were added at final concentrations of 1, 2, 4, 6, 8, 12, 16, 24, and 30 μM (3 repeated wells per concentration). Compounds were pre-dissolved in DMSO, sterilized, and diluted with medium before adding 20 μL/well. After co-incubation for designated durations, 10 μL CCK-8 solution was added per well followed by 1-4 h incubation (different cells have different incubation times). The reaction was terminated, and OD (optical density) values at 450 nm were measured using a microplate reader. Inhibition rates were calculated as: (ODcontrol−ODtreatment)/ODcontrol×100%. Median inhibitory concentrations (IC50 values) were derived using Origin v8.0 software.

A549 cells = assay: CCK-8 anti-proliferative assay, A549; conditions: Homo sapiens, A549; Table 16; comparative compounds 8-1 to 8-23; co-incubated 48 h; read-out: Anti-proliferative activity (IC50 ± standard deviation) A549
Experimental: as §1, §2

MCF-7 cells = assay: CCK-8 anti-proliferative assay, MCF-7; conditions: Homo sapiens, MCF7; Table 16; comparative compounds 8-1 to 8-23; co-incubated 48 h; read-out: Anti-proliferative activity (IC50 ± standard deviation) MCF-7
Experimental: as §1, §2

Hep G2 cells = assay: CCK-8 anti-proliferative assay, Hep G2; conditions: Homo sapiens, HepG2
From the text: as §3, §4

[1] = Table 16, comparative compounds 8-1 to 8-23, co-incubated 48 h, read-out: Anti-proliferative activity (IC50 ± standard deviation) Hep G2

COc1cc2ncnc(NCc3cccc(NC(=O)Nc4ccccc4)c3)c2cc1OCCCC(=O)N1CCC(N2CCOCC2)CC1 [Compound 8-1, reference compound]
IC50 (5637 cells): 26.2 ± 0.98 µM
IC50 (T24 cells): 18.8 ± 0.49 µM
IC50 (A549 cells): > 30 µM
IC50 (MCF-7 cells): 18.3 ± 0.53 µM
IC50 (Hep G2 cells; [1]): 28.2 ± 0.49 µM

COc1cc2ncnc(NCc3cccc(NC(=O)Nc4ccccc4C)c3)c2cc1OCCCC(=O)N1CCC(N2CCOCC2)CC1 [Compound 8-2, reference compound]
IC50 (5637 cells): 25.9 ± 1.32 µM
IC50 (T24 cells): > 30 µM
IC50 (A549 cells): > 30 µM
IC50 (MCF-7 cells): 16.5 ± 0.64 µM
IC50 (Hep G2 cells; [1]): > 30 µM

COc1cc2ncnc(NCc3cccc(NC(=O)Nc4ccc(C)cc4)c3)c2cc1OCCCC(=O)N1CCC(N2CCOCC2)CC1 [Compound 8-3, reference compound]
IC50 (5637 cells): > 30 µM
IC50 (T24 cells): 20.6 ± 0.68 µM
IC50 (A549 cells): 24.1 ± 0.95 µM
IC50 (MCF-7 cells): 23.2 ± 0.35 µM
IC50 (Hep G2 cells; [1]): > 30 µM

COc1cc2ncnc(NCc3cccc(NC(=O)Nc4ccc(C)cc4C)c3)c2cc1OCCCC(=O)N1CCC(N2CCOCC2)CC1 [Compound 8-4, reference compound]
IC50 (5637 cells): 14 ± 0.66 µM
IC50 (T24 cells): 27.1 ± 0.33 µM
IC50 (A549 cells): 22.2 ± 1.15 µM
IC50 (MCF-7 cells): 18.5 ± 0.63 µM
IC50 (Hep G2 cells; [1]): > 30 µM

COc1cc2ncnc(NCc3cccc(NC(=O)Nc4cc(C)cc(C)c4)c3)c2cc1OCCCC(=O)N1CCC(N2CCOCC2)CC1 [Compound 8-5, reference compound]
IC50 (5637 cells): 21.7 ± 0.51 µM
IC50 (T24 cells): 23.2 ± 0.54 µM
IC50 (A549 cells): 21 ± 0.87 µM
IC50 (MCF-7 cells): 21.3 ± 0.42 µM
IC50 (Hep G2 cells; [1]): > 30 µM

CCc1ccccc1NC(=O)Nc1cccc(CNc2ncnc3cc(OC)c(OCCCC(=O)N4CCC(N5CCOCC5)CC4)cc23)c1 [Compound 8-6, reference compound]
IC50 (5637 cells): 27.5 ± 0.94 µM
IC50 (T24 cells): 19.4 ± 0.44 µM
IC50 (A549 cells): > 30 µM
IC50 (MCF-7 cells): > 30 µM
IC50 (Hep G2 cells; [1]): > 30 µM

CCc1cccc(CC)c1NC(=O)Nc1cccc(CNc2ncnc3cc(OC)c(OCCCC(=O)N4CCC(N5CCOCC5)CC4)cc23)c1 [Compound 8-7, reference compound]
IC50 (5637 cells): 13.9 ± 0.68 µM
IC50 (T24 cells): 18.6 ± 0.53 µM
IC50 (A549 cells): > 30 µM
IC50 (MCF-7 cells): > 30 µM
IC50 (Hep G2 cells; [1]): 24.2 ± 0.53 µM

COc1cc2ncnc(NCc3cccc(NC(=O)Nc4ccc(C(C)C)cc4)c3)c2cc1OCCCC(=O)N1CCC(N2CCOCC2)CC1 [Compound 8-8, reference compound]
IC50 (5637 cells): 7.6 ± 0.18 µM
IC50 (T24 cells): 7.73 ± 0.23 µM
IC50 (A549 cells): 18.3 ± 0.29 µM
IC50 (MCF-7 cells): 10 ± 0.19 µM
IC50 (Hep G2 cells; [1]): 17.7 ± 0.46 µM

COc1cc2ncnc(NCc3cccc(NC(=O)Nc4ccc(C(C)(C)C)cc4)c3)c2cc1OCCCC(=O)N1CCC(N2CCOCC2)CC1 [Compound 8-9, reference compound]
IC50 (5637 cells): 6.25 ± 0.06 µM
IC50 (T24 cells): 4.54 ± 0.04 µM
IC50 (A549 cells): 12.5 ± 0.37 µM
IC50 (MCF-7 cells): 6.55 ± 0.13 µM
IC50 (Hep G2 cells; [1]): 12.2 ± 0.17 µM
IC50 (Hep G2 cells; read-out: IC50 on Hep G2): 12.2 ± 0.17 µM

COc1ccccc1NC(=O)Nc1cccc(CNc2ncnc3cc(OC)c(OCCCC(=O)N4CCC(N5CCOCC5)CC4)cc23)c1 [Compound 8-10, reference compound]
IC50 (5637 cells): 16.9 ± 0.64 µM
IC50 (T24 cells): 18.7 ± 0.38 µM
IC50 (A549 cells): > 30 µM
IC50 (MCF-7 cells): 19.3 ± 0.56 µM
IC50 (Hep G2 cells; [1]): 28.8 ± 0.58 µM
